Patent US9957246B2, “Prodrugs of tetrahydrocannabinol, compositions comprising prodrugs of tetrahydrocannabinol and methods of using the same” (Zynerba Pharmaceuticals, Inc., priority 2007, dated 2018)

Key:
[1] = Plasma stability of prodrugs (bioconversion to parent drug); format: in vitro ADME
Method: Approximately 1 mg/mL of stock solution of each prodrug was prepared in 100 μL of ethanol and 900 μL of acetonitrile. Next, 10 μL of stock was spiked into 1 mL of plasma and vortexed. The samples were kept sealed in an amber vial and samples were obtained to analyze for bioconversion to parent drug.
An approximated 1 mg/mL stock solution of each prodrug was prepared in 100 μL of ethanol and 900 μL of acetonitrile. Next, 10 μL of stock was spiked into 1 mL of plasma and vortexed. The samples were kept sealed in an amber vial and samples were obtained to analyze for bioconversion to parent drug.
Approximately 1 mg/mL of stock solution of each prodrug was prepared in 100 μL of ethanol and 900 μL of acetonitrile. Ten μL of stock was spiked into 1 mL of plasma and vortexed. The samples were kept sealed in an amber vial and samples were obtained to analyze for bioconversion to parent drug.

[2] = In vitro human skin permeation, flow-through diffusion cells
[3] = Table 19, 90:8:2 PG:H2O:IPM donor solution, analyte: THC or intact prodrug as applied
[4] = Table 3, 1:1:1 PG:ethanol:H2O donor solution
[5] = Table 5, 1:1:1 PG:ethanol:H2O donor solution and higher flow rate
[6] = Table 6, 1:1:1 PG:ethanol:H2O donor solution, receiver fluid 25% aqueous ethanol
[7] = Table 6, 1:1:1 PG:ethanol:H2O donor solution, receiver fluid 40% aqueous PEG 400
[8] = Table 7, 2.36:1.18:1 PG:ethanol:H2O donor solution, analyte: THC or intact prodrug as applied
[9] = Table 8, gel formulation, analyte: THC or intact prodrug as applied
[10] = Table 9, 2.36:1.18:1 pH = 5.5 PG:ethanol:H2O donor solution, analyte: THC or intact prodrug as applied
[11] = Table 10, 2.36:1.18:1 pH = 5.5 PG:ethanol:H2O donor solution, analyte: THC or intact prodrug as applied
[12] = Table 13, gel formulation with 40% aqueous PEG 400 receiver fluid, analyte: THC or intact prodrug as applied
[13] = Table 17, 90:8:2 PG:H2O:IPM donor solution, analyte: THC or intact prodrug as applied
[14] = Table 18, 90:8:2 PG:H2O:IPM donor solution, analyte: THC or intact prodrug as applied
[15] = Table 20, 90:8:2 PG:H2O:IPM donor solution (saturated), analyte: THC or intact prodrug as applied

CCCCCc1cc(OC(=O)C2CCCN2)c2c(c1)OC(C)(C)[C@@H]1CCC(C)=C[C@@H]21 (stereo partly drawn) [ALL00125, Δ^9-Tetrahydrocannabinol prolyl ester]
% Prodrug at time (h) ([1]; Table 11, 0.1 h): 100% | % Prodrug at time (h) ([1]; Table 11, 2 h): 77% | % Prodrug at time (h) ([1]; Table 11, 5 h): 55% | % Prodrug at time (h) ([1]; Table 11, 22 h): 0% | % Prodrug at time (h) ([1]; Table 11, 24 h): 0% | % Prodrug at time (h) ([1]; Table 11, 42 h): 0%

CCCCCc1cc(OC(=O)OCCCCN)c2c(c1)OC(C)(C)[C@@H]1CCC(C)=C[C@@H]21 [ALL00127, Δ^9-Tetrahydrocannabinol 4-aminobutyl carbonate]
% Prodrug at time (h) ([1]; Table 15, 0.1 h): 100% | % Prodrug at time (h) ([1]; Table 15, 1 h): 100% | % Prodrug at time (h) ([1]; Table 15, 2.5 h): 91% | % Prodrug at time (h) ([1]; Table 15, 3.5 h): 85%

CCCCCc1cc(OC(=O)[C@H](O)CO)c2c(c1)OC(C)(C)[C@@H]1CCC(C)=C[C@@H]21 [ALL00144, THC (R)-2,3-dihydroxypropanoate]
24 h cumulative amt [2, 3]: 137.9 ± 55.2 nmol | 24 h skin conc [2, 3]: 65.5 ± 39.5 µmol/g | Flux [2, 3]: 8.6 ± 3.4 nmol/cm^2/h | Lag time [2, 3]: 7.2 ± 0.1 h

CCCCCc1cc(O)c2c(c1)OC(C)(C)[C@@H]1CCC(C)=C[C@@H]21 [Δ^9-tetrahydrocannabinol, reference compound]
24 h cumulative amt ([2]; Table 2, 100% PG donor solution): 6.91 ± 2.1 nmol | 24 h skin conc ([2]; Table 2, 100% PG donor solution, analyte: THC or intact prodrug (PD)): 74.8 ± 15.5 µmol/g | 24 h cumulative amt [2, 4]: 9.0 ± 5.9 nmol | Flux [2, 4]: 0.93 ± 0.58 nmol/cm^2/h | Lag time [2, 4]: 13.0 ± 1.8 h | 24 h skin conc ([2]; Table 3, 1:1:1 PG:ethanol:H2O donor solution, analyte: THC or intact prodrug (PD)): 59.4 ± 30.5 µmol/g | 24 h cumulative amt ([2]; Table 4, gel formulation): 1.5 ± 0.3 nmol | Flux ([2]; Table 4, gel formulation): 0.14 ± 0.03 nmol/cm^2/h | Lag time ([2]; Table 4, gel formulation): 11.2 ± 2.7 h | 24 h skin conc ([2]; Table 4, gel formulation, analyte: THC or intact prodrug (PD)): 100.4 ± 5.8 µmol/g | 24 h cumulative amt [2, 5]: 6.0 ± 2.1 nmol | 24 h skin conc [2, 5]: 133.8 ± 52.3 µmol/g | Flux [2, 5]: 0.67 ± 0.15 nmol/cm^2/h | Lag time [2, 5]: 8.9 ± 7.2 h | 24 h cumulative amt [2, 6]: 9.4 ± 0.2 nmol | 24 h skin conc [2, 6]: 24.1 ± 5.2 µmol/g | Flux [2, 6]: 0.70 ± 0.01 nmol/cm^2/h | Lag time [2, 6]: 6.9 ± 0.2 h | 24 h cumulative amt [2, 7]: 28.6 ± 3.2 nmol | 24 h skin conc [2, 7]: 17.4 ± 11.6 µmol/g | Flux [2, 7]: 1.79 ± 0.39 nmol/cm^2/h | Lag time [2, 7]: 6.4 ± 1.6 h | 24 h cumulative amt [2, 8]: 43.1 ± 4.8 nmol | 24 h skin conc [2, 8]: 75.2 ± 33.1 µmol/g | Flux [2, 8]: 3.1 ± 0.2 nmol/cm^2/h | Lag time [2, 8]: 9.0 ± 2.9 h | 24 h cumulative amt [2, 9]: 10.7 ± 2.1 nmol | 24 h skin conc [2, 9]: 40.9 ± 14.7 µmol/g | Flux [2, 9]: 0.62 ± 0.23 nmol/cm^2/h | Lag time [2, 9]: 5.3 ± 3.3 h | 24 h cumulative amt [2, 10]: 16.3 ± 7.3 nmol | 24 h skin conc [2, 10]: 16.1 ± 0.5 µmol/g | Flux [2, 10]: 1.3 ± 0.5 nmol/cm^2/h | Lag time [2, 10]: 11.4 ± 0.6 h | 24 h cumulative amt [2, 11]: 33.6 ± 11.2 nmol | 24 h skin conc [2, 11]: 7.4 ± 0.6 µmol/g | Flux [2, 11]: 2.7 ± 1.1 nmol/cm^2/h | Lag time [2, 11]: 10.8 ± 1.4 h | 24 h cumulative amt [2, 12]: 3.1 ± 0.8 nmol | 24 h skin conc [2, 12]: 3.6 ± 1.7 µmol/g | Flux [2, 12]: 0.17 ± 0.02 nmol/cm^2/h | Lag time [2, 12]: 4.6 ± 3.2 h | 24 h cumulative amt [2, 13]: 16.3 ± 0.3 nmol | 24 h skin conc [2, 13]: 6.1 ± 1.9 µmol/g | Flux [2, 13]: 1.0 ± 0.3 nmol/cm^2/h | Lag time [2, 13]: 5.8 ± 5.9 h | 24 h cumulative amt [2, 14]: 53.3 ± 0.0 nmol | 24 h skin conc [2, 14]: 17.4 ± 9.2 µmol/g | Flux [2, 14]: 3.2 ± 0.0 nmol/cm^2/h | Lag time [2, 14]: 6.2 ± 0.0 h | 24 h cumulative amt [2, 3]: 29.8 ± 3.3 nmol | 24 h skin conc [2, 3]: 23.3 ± 1.7 µmol/g | Flux [2, 3]: 2.0 ± 0.3 nmol/cm^2/h | Lag time [2, 3]: 8.7 ± 0.3 h | 24 h cumulative amt [2, 15]: 15.7 ± 4.5 nmol | 24 h skin conc [2, 15]: 8.5 ± 3.5 µmol/g | Flux [2, 15]: 1.1 ± 0.3 nmol/cm^2/h | Lag time [2, 15]: 9.0 ± 0.7 h
